Legend:
HFD-fed mice [1] = conditions: U0126 thirty minutes before FGF19 injection
Procedure: ERK1/2 signaling involved in FGF19-glucose metabolism regulation. […] Mice were treated twice with FGF19 (starting 16 hours after fasting and 6.5 hours apart) and tissues were collected 90 minutes after the last ip injection (2C) Analysis of co-localization between Npy-hrGFP positive neurons (lighter gray) and p-ERK1/2 positive cells (darker gray) in 24 h fasted ob/ob Npy-hrGFP mice following intraperitoneal injections of FGF19. (2D) Quantification of Npy-hrGFP positive neurons that colocalize with pERK1/2 staining in ARC (Bregma −1.7 to −1.9 mm) of ob/ob Npy-hrGFP mice (10 sections from 3 mice were examined in each group). (2E) Representative sections showing absence of co-localization between Pomc-eGFP positive neurons (lighter gray) and p-ERK1/2 positive cells (darker gray) in 24 h fasted ob/ob Pomc-eGFP mice following intraperitoneal injections of FGF19. *P<0.05, ***P<0.005.
It was assessed whether increased ERK1/2 activation could mediate the glucose lowering effect of FGF19.

AGRP/NPY neurons = assay: Colocalization of phospho-ERK1/2 with Npy-GFP in ARC after intraperitoneal FGF19; format: in vivo; conditions: 24 h fasted Npy-hrGFP ob/ob mice
Procedure: FIG. 2A-2E. ERK1/2 signaling involved in FGF19-glucose metabolism regulation.
The neuronal population targeted by FGF19 was investigated. 24 h fasted Npy-hrGFP transgenic mice deficient in leptin (Npy-hrGFP ob/ob), in which AGRP/NPY neurons in ARC appear GFP+, were injected intraperitoneally with FGF19 and the colocalization between phospho-ERK1/2 and Npy-GFP was analyzed in ARC. […] Overall, the data support that central FGF19 improved glucose metabolism required activation of ERK1/2 signaling and that AGRP/NPY neurons are a likely mediator of FGF19 action.

[2] = system: hypothalamic AGRP/NPY neurons; conditions: cited from earlier work
HFD-fed mice [3] = conditions: FGF19 injected centrally and peripherally; previously shown (3); cited from earlier work
POMC neurons = assay: Colocalization of phospho-ERK1/2 with Pomc-eGFP in ARC after intraperitoneal FGF19; format: in vivo; conditions: 24 h fasted Pomc-eGFP ob/ob mice
8 month old outbred mice = assay: Oral glucose tolerance test after intraparenchymal injection of peptide into the mediobasal hypothalamus; format: in vivo
Procedure: A peptide of 13 amino acids ([…]) (SEQ ID NO:4) was synthesized based on the conserved sequences between the FGF8 and FGF17 b splice isoforms and the helical nature of this region of FGF8 based on a published crystal structure. This peptide was injected intraparenchymally into the mediobasal hypothalamus of 8 month old outbred mice. Having been fasted overnight, the mice were subjected to an oral glucose tolerance test (2 mg/g of glucose) using a crossover design to obtain a control condition. […] With aCSF, the median area under the curve for the 3 hour GTT was 43,747 mg-min/dL whereas it was […] with F8b13. Blood glucose concentrations were not different before the glucose load. These FGF derived peptide antagonists are useful as therapeutic agents in diabetes and obesity conditions.

## N#CC(=C(/N)Sc1ccccc1N)/C(C#N)=C(\N)Sc1ccccc1N [U0126]
HFD-fed mice [1]
  effect of U0126 pre-treatment on the glucose lowering effect of FGF19: blocked the glucose lowering effect of FGF19

## FGF19: endocrine fibroblast growth factor
AGRP/NPY neurons
  colocalization of FGF19-induced pERK1/2 staining with NPY-GFP+ neurons in ARC: colocalized with NPY-GFP+ neurons
[2]; mice fasted overnight
  induction of AGRP and NPY mRNA: prevented the induction of AGRP and NPY mRNA
[2]; mouse, in vivo
  ERK1/2 activation in hypothalamic AGRP/NPY neurons: activated ERK1/2
  FOS in hypothalamic AGRP/NPY neurons: FOS was reduced
  effects on POMC neurons: no effects
HFD-fed mice [3]
  glucose handling in obese mice (ob/ob) and high fat fed mice: could improve glucose handling
POMC neurons
  colocalization of Pomc-eGFP positive neurons with pERK1/2 staining in ARC: do not colocalize

## PNFTQHVREQSLV (peptide fragment based on human sequence) [F8b13]
8 month old outbred mice; oral GTT 2 mg/g glucose, overnight fast, crossover design
  glucose tolerance compared to the same mice after aCSF: improved glucose tolerance
8 month old outbred mice; oral GTT 2 mg/g glucose, overnight fast, crossover vs aCSF, intraparenchymal injection into mediobasal hypothalamus
  median area under the curve for the 3 hour GTT: 33500 mg·min/dL
8 month old outbred mice; overnight fasted, vs aCSF
  blood glucose concentrations before the glucose load: not different
